These results are taken from US8039616B2, “Benzodiazepine derivatives for treating hepatitis C infection” (AstraZeneca AB, priority 2005, dated 2011).

This experiment concerns the target T1, HCV Polymerase (Hepatitis C virus genotype 1a, UniProt P27958).
T1 construct: the HCV Polymerase was expressed and purified by Prof Alistair Hawkins; made in house
In words: Polymerase 96 well microtitre plate based IC50 assay (33P-UTP incorporation, streptavidin FlashPlates). Conditions: polyA/biotinylated-U13 template-primer, 100 minutes at 25° C. In kind it is biochemical. From the text: Polymerase 96 Well Microtitre Plate Based IC50 Assay
Inhibitors of HCV Polymerase can be detected radioactively by monitoring the incorporation of ^33P-UTP within an RNA template/Bi-primer system using streptavidin coated FlashPlates. The template and primer for the reaction can be bought externally from Amersham (Poly A) and MWG-Dharmacon (Biotinylated-U13). The cold UTP can be purchased from Roche and the HCV Polymerase was expressed and purified by Prof Alistair Hawkins at Newcastle University, UK.
50 μl substrate, 40 μl enzyme, 10 μl compound=100 μl assay
Compounds are diluted so that DMSO remains 10% at all times. E.g. 5 μl compound (10 mM)+5 μl DMSO+90 μl Buffer (see below for buffer)
Some 20 mM Tris-HCl, pH 7.5, 5 mM MgCl2, 25 mM KCL, 3 mM DTT and 0.05% BSA is made up.
The PolyA and Biotinylated U13 are annealed at 70° C. for 5 minutes to 40 μM U13 (212 μg/ml polyA.) and cooled gently on ice prior to use (110 μl primer (80 μM)+5.5 μl poly A+104.5 μl dH20.). Some 200 μl annealed primer/template is mixed with 12.8 μl UTP (1 mM stock), 25.6 μl 33p-UTP and 31761.6 μl Buffer to make the substrate mix.
From IC50 dilution plates 10 μl are transferred from column 3 into columns 3 and 3 on two separate assay plates. This is repeated for all compound dilutions to 2 separate assay plates. Then 10 μl 10% DMSO solution is added to positive and negative controls (see plate map below). In addition, 40 μl 20 mM Tris-HCl buffer is added to negative controls.
Then 50 μl substrate mix is added to all wells.
Then 40 μl enzyme mix each is added to all other wells and the reaction is left for 100 minutes shaking at 25° C.
The reaction is terminated with the addition of 100 μl, 100 mM EDTA and the volume is transferred to a streptavidin coated flash plate, covered and left for an hour.
All plates are washed three times in SkanWasher plate-washer (Skatron Instruments) under programme ‘AH’. The wash buffer contains, 0.01M phosphate buffer, 0.0027M potassium chloride and 0.137M sodium chloride, pH 7.4 at 25° C., 0.05% Tween
All plate are recovered and the cpmB read in the TopCount (supplied by DPM solutions), protocol 6.

T1 sequence (P27958 2421-3011): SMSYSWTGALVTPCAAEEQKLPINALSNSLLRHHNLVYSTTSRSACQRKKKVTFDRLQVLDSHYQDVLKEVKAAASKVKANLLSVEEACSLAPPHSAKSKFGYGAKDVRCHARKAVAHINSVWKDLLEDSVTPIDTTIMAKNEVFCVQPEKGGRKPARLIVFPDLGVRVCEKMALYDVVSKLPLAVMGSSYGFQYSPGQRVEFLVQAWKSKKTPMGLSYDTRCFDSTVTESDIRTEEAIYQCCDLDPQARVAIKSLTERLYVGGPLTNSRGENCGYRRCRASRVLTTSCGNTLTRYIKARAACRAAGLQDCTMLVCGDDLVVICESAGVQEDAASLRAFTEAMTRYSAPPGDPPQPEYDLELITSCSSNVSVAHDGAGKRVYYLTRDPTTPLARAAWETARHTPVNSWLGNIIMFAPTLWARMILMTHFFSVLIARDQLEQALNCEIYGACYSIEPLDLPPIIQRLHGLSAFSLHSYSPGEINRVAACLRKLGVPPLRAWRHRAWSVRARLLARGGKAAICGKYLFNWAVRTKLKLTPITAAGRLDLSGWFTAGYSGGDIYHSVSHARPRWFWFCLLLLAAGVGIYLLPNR

The term IC50 denotes the midpoint of a concentration-inhibition curve. For `O=C(NC1N=C(c2ccc(Cl)cc2)c2ccccc2NC1=O)c1sccc1Br` (stereo not drawn) [Example 12, 3-Bromo-thiophene-2-carboxylic acid [5-(4-chloro-phenyl)-2-oxo-2,3-dihydro-1H-benzo[e][1,4]diazepin-3-yl]-amide], the half-maximal inhibitory concentration (IC50) is greater than 1 µM.
As for `COc1ccc(F)cc1C(=O)NC1N=C(c2ccc(Cl)cc2)c2ccccc2NC1=O` (stereo not drawn) [Example 6, N-[5-(4-Chloro-phenyl)-2-oxo-2,3-dihydro-1H-benzo[e][1,4]diazepin-3-yl]-5-fluoro-2-methoxy-benzamide], the figure is greater than 1 µM; as for `CCOc1ccccc1C(=O)N[C@H]1N=C(c2ccc(Cl)cc2)c2ccccc2NC1=O` [Example 2, (S)—N-[5-(4-Chloro-phenyl)-2-oxo-2,3-dihydro-1H-benzo[e][1,4]diazepin-3-yl]-2-ethoxy-benzamide], greater than 1 µM; as for `CCOc1ccccc1C(=O)NC1N=C(c2ccc(Cl)cc2)c2ccccc2NC1=O` (stereo not drawn) [Example 1, N-[5-(4-Chloro-phenyl)-2-oxo-2,3-dihydro-1H-benzo[e][1,4]diazepin-3-yl]-2-ethoxy-benzamide], greater than 1 µM.
`COc1ccc(OC)c(C(=O)N[C@H]2N=C(c3ccc(Cl)cc3)c3ccccc3NC2=O)c1` [Example 4, (S)—N-[5-(4-Chloro-phenyl)-2-oxo-2,3-dihydro-1H-benzo[e][1,4]diazepin-3-yl]-2,5-dimethoxy-benzamide]: the IC50 was less than 1 µM.
Take `COc1ccc(OC)c(C(=O)N[C@@H]2N=C(c3ccc(Cl)cc3)c3ccccc3NC2=O)c1` [Example 5, (R)—N-[5-(4-Chloro-phenyl)-2-oxo-2,3-dihydro-1H-benzo[e][1,4]diazepin-3-yl]-2,5-dimethoxy-benzamide]: the IC50 is greater than 1 µM.
Consider `COc1ccc(Cl)cc1C(=O)N[C@@H]1N=C(c2ccc(Cl)cc2)c2ccccc2NC1=O` [Example 11, (R)-5-Chloro-N-[5-(4-chloro-phenyl)-2-oxo-2,3-dihydro-1H-benzo[e][1,4]diazepin-3-yl]-2-methoxy-benzamide], for which the IC50 is greater than 1 µM.
In the case of `COc1ccc(OC)c(C(=O)NC2N=C(c3ccc(Cl)cc3)c3ccccc3NC2=O)c1` (stereo not drawn) [Example 3, N-[5-(4-Chloro-phenyl)-2-oxo-2,3-dihydro-1H-benzo[e][1,4]diazepin-3-yl]-2,5-dimethoxy-benzamide], the IC50 was less than 1 µM.
As to `COc1ccc(Cl)cc1C(=O)NC1N=C(c2ccc(Cl)cc2)c2ccccc2NC1=O` (stereo not drawn) [Example 9, 5-Chloro-N-[5-(4-chloro-phenyl)-2-oxo-2,3-dihydro-1H-benzo[e][1,4]diazepin-3-yl]-2-methoxy-benzamide], the IC50 is less than 1 µM.
For `COc1ccc(F)cc1C(=O)N[C@@H]1N=C(c2ccc(Cl)cc2)c2ccccc2NC1=O` [Example 8, (R)—N-[5-(4-Chloro-phenyl)-2-oxo-2,3-dihydro-1H-benzo[e][1,4]diazepin-3-yl]-5-fluoro-2-methoxy-benzamide], the IC50 is greater than 1 µM.
As for `COc1ccc(Cl)cc1C(=O)N[C@H]1N=C(c2ccc(Cl)cc2)c2ccccc2NC1=O` [Example 10, (S)-5-Chloro-N-[5-(4-chloro-phenyl)-2-oxo-2,3-dihydro-1H-benzo[e][1,4]diazepin-3-yl]-2-methoxy-benzamide], the figure is less than 1 µM; as for `COc1ccc(F)cc1C(=O)N[C@H]1N=C(c2ccc(Cl)cc2)c2ccccc2NC1=O` [Example 7, (S)—N-[5-(4-Chloro-phenyl)-2-oxo-2,3-dihydro-1H-benzo[e][1,4]diazepin-3-yl]-5-fluoro-2-methoxy-benzamide], greater than 1 µM.
